Assay [1] addresses T1, Glucocorticoid receptor (Homo sapiens, UniProt P04150).
T1 sequence (P04150 whole entry): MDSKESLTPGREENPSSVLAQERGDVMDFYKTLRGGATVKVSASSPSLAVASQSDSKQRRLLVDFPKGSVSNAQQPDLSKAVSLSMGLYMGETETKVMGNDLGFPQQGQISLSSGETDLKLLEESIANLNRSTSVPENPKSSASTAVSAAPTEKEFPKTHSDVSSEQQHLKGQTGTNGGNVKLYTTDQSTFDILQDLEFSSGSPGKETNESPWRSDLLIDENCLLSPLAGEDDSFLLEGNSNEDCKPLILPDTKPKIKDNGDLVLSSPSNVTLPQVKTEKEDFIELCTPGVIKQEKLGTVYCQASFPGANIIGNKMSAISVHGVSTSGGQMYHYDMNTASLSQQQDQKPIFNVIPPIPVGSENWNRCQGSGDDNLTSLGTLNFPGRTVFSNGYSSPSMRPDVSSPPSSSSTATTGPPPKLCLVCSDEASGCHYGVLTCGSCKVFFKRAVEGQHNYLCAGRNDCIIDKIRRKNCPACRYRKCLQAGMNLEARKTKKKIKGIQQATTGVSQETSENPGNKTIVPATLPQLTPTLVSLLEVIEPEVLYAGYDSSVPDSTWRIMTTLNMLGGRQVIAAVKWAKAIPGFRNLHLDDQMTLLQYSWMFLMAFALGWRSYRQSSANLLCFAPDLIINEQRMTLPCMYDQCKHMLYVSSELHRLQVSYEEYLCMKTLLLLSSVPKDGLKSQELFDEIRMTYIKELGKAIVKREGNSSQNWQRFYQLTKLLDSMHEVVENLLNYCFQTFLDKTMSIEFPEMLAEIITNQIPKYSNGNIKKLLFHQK
Description: Effective agonist concentration for transcriptional repression of IL-6 production in IL-1 stimulated human foreskin fibroblasts. Format: functional.

The target in assay [2] is T1, Glucocorticoid receptor. Description: Binding affinity towards glucocorticoid receptor using fluorescence polarization competitive binding assay.
Assay [3] deals with T2, Mineralocorticoid receptor (Homo sapiens, UniProt P08235).
T2 sequence (P08235 whole entry): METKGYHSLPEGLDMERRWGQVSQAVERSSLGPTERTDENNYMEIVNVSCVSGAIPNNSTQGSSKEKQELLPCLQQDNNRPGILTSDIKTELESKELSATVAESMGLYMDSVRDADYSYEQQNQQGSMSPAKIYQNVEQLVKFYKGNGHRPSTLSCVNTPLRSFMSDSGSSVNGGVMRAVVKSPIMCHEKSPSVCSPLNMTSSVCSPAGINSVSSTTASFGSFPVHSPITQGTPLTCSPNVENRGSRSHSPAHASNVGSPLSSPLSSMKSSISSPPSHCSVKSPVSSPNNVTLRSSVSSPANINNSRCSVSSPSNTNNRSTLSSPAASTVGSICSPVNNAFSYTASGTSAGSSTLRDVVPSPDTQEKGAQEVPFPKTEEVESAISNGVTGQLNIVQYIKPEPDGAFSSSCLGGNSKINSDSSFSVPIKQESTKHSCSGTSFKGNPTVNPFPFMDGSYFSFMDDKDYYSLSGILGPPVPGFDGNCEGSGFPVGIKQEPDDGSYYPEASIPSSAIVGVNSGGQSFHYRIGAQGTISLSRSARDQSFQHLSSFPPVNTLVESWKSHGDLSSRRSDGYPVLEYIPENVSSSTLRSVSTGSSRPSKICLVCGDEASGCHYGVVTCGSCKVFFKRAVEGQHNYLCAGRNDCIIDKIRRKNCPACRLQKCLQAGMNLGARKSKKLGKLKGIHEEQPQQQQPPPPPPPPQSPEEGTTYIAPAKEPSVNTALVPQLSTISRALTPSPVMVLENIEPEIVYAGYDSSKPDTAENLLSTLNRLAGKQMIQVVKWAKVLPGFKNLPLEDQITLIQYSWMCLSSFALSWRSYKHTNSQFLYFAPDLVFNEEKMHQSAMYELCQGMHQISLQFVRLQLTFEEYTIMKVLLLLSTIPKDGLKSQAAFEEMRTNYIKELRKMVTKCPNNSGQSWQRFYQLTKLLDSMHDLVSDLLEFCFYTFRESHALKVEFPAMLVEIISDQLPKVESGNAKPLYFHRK
Description: Binding affinity towards mineralocorticoid receptor using fluorescence polarization competitive binding assay. On the technique in general: Fluorescence polarisation rises when a labelled molecule tumbles more slowly, as on binding a larger partner.

The target in the next assay is T3, Progesterone receptor (Homo sapiens, UniProt P06401).
T3 sequence (P06401 whole entry): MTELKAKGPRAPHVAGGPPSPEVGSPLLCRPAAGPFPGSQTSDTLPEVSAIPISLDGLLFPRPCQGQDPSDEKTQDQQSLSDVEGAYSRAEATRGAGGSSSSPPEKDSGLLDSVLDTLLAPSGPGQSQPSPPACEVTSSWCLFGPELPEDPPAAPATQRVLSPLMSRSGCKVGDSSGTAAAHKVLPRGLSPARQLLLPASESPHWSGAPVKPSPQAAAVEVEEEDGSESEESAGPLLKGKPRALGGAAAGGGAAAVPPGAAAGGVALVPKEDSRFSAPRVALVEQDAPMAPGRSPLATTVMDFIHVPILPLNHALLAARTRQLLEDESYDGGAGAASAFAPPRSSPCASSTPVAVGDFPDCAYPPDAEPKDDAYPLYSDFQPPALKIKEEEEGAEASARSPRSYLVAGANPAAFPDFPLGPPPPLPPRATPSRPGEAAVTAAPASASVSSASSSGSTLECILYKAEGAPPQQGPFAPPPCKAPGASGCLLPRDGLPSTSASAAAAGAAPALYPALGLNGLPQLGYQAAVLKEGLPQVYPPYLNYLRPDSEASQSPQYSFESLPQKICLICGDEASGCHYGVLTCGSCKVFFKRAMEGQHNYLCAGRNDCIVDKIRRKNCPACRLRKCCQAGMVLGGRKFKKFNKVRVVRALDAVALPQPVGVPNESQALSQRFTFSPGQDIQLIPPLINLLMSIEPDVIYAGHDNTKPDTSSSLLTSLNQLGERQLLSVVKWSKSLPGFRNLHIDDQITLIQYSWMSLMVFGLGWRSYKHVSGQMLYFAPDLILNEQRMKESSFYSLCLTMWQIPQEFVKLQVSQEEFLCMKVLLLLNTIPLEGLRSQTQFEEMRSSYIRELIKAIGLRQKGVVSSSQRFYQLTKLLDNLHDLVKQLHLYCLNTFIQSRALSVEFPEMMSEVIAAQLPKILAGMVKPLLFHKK
Description: Binding affinity towards progesterone receptor using fluorescence polarization competitive binding assay.

The target of assay [4] is T1, Glucocorticoid receptor. Description: Effective concentration against inhibition of Dexamethasone induced glucocorticoid receptor transactivation of mouse mammary tumor virus luciferase gene in HeLa cells. Format: cell-based.

Each structure is given as a SMILES string.

For orientation: EC50 means the concentration that produces a half-maximal response. By IC50 is commonly meant the midpoint of a concentration-inhibition curve. Low values mean greater potency, high ones weaker potency.

On Glucocorticoid receptor [1], `Cc1noc(=O)c2ccc(NC(=O)C(O)(CC(C)(C)c3cc(F)ccc3O)C(F)(F)F)cc12` (centres undefined) registered an EC50 of 10 nM. The IC50 at Glucocorticoid receptor [2] was determined as 4 nM; in assay [3], 41 nM; at Progesterone receptor, 22 nM.

For `CC(C)(CC(O)(C(=O)Nc1ccc2c(c1)COC2=O)C(F)(F)F)c1cc(F)ccc1O` (centres undefined), the results for the EC50 on Glucocorticoid receptor [1] and on Glucocorticoid receptor [4] were 45 nM and 150 nM, respectively. For the same compound, the IC50 on Glucocorticoid receptor [2] came to 6 nM; in assay [3], 30 nM; at Progesterone receptor, 16 nM.

These data come from ChEMBL document CHEMBL1143464, “Trifluoromethyl group as a pharmacophore: effect of replacing a CF3 group on binding and agonist activity of a glucocorticoid receptor ligand” (Bioorg Med Chem Lett, 2005).
